# Earlier results as cited in PubChem BioAssay AID1259409 (Chemical Carcinogenesis Research Information System (CCRIS), 2018).
# System: rodent chemically induced tumor inhibition, incidence and multiplicity
# Experiment: CCRIS tumor inhibitor studies
# Details: Carcinogen: 4-(METHYLNITROSAMINO)-1-(3-PYRIDYL)-1-BUTANONE, 64091-91-4, Promoter: NONE USED; for tumour outcome (control, treated, inhibition, significance): Dose [Inhibitor]: 0
structure (smiles),measurement,setting,value
S=C=NCCc1ccccc1,"tumour outcome (control, treated, inhibition, significance)","3 UMOL/G OF DIET FOR 112 WK BEGINNING 1 WK PRIOR TO CARCINOGEN TREATMENT (STUDY DURATION: 112 WK), Route [Inhibitor]: ORAL, Species: RAT, Strain/Sex: F344/MALE, Target Tissue: Type of Lesion: PANCREAS (EXOCRINE): MALIGNANT TUMOR, Dose [Carcinogen]: 2 PPM IN DRINKING WATER FOR 111 WK","4/52 (8%), 0/59 (0%), 100%, p=0.005"
same,"tumour outcome (control, treated, inhibition, significance)","5 UMOL 1/D FOR 4 D ADMINISTERED PRIOR TO CARCINOGEN DOSE (STUDY DURATION: 116 D), Route [Inhibitor]: GAVAGE, Species: MOUSE, Strain/Sex: STRAIN-A, Target Tissue: Type of Lesion: LUNG: ADENOMA, Dose [Carcinogen]: 10 UMOL IN SALINE ADMINISTERED 2 HR POST LAST AGENT DOSE","100%, 93%, 7%, not calculated"
same,"tumour outcome (control, treated, inhibition, significance)","5 UMOL 1/D FOR 4 D ADMINISTERED PRIOR TO CARCINOGEN TREATMENT (STUDY DURATION: 116 D), Route [Inhibitor]: GAVAGE, Species: MOUSE, Strain/Sex: STRAIN A, Target Tissue: Type of Lesion: LUNG: ADENOMA, Dose [Carcinogen]: 10 UMOL ONCE 2 HR AFTER FINAL DOSE OF INHIBITOR","100%, 93%, 7%, not significant"
same,"tumour outcome (control, treated, inhibition, significance)","5 UMOL 1/D FOR 4 DAYS ADMINISTERED PRIOR TO CARCINOGEN TREATMENT (STUDY DURATION: 116 D), Route [Inhibitor]: GAVAGE, Species: MOUSE, Strain/Sex: STRAIN-A, Target Tissue: Type of Lesion: LUNG: ADENOMA, Dose [Carcinogen]: 10 UMOL ONCE 2 HR AFTER FINAL DOSE OF INHIBITOR","100%, 89%, 11%, not significant"
same,"tumour outcome (control, treated, inhibition, significance)","5 UMOL/D ADMINISTERED TO MICE HETEROZYGOUS (P53+/-) FOR P53 ALLELES FOR 4 CONSECUTIVE DAYS PRIOR TO CARCINOGEN DOSE (, Route [Inhibitor]: GAVAGE, Species: MOUSE, Strain/Sex: (A/J X TSG-P53)F1/FEMALE, Target Tissue: Type of Lesion: LUNG: ADENOMA, Dose [Carcinogen]: 10 UMOL ONCE","100%, 40%, 60%, p<0.0001"
same,"tumour outcome (control, treated, inhibition, significance)","5 UMOL/D ADMINISTERED TO MICE HOMOZYGOUS (P53+/+) FOR P53 ALLELES FOR 4 CONSECUTIVE DAYS PRIOR TO CARCINOGEN DOSE (ST, Route [Inhibitor]: GAVAGE, Species: MOUSE, Strain/Sex: (A/J X TSG-P53)F1/FEMALE, Target Tissue: Type of Lesion: LUNG: ADENOMA, Dose [Carcinogen]: 10 UMOL ONCE","100%, 36%, 64%, p<0.0001"
same,"tumour outcome (control, treated, inhibition, significance)","5 UMOL/D FOR 4 CONSECUTIVE DAYS (STUDY DURATION: 17 WK), Route [Inhibitor]: GAVAGE, Species: MOUSE, Strain/Sex: STRAIN-A/FEMALE, Target Tissue: Type of Lesion: LUNG: ADENOMA, Dose [Carcinogen]: 10 UMOL ONCE 2 HR POST LAST AGENT DOSE","100%, 89%, 11%, not calculated"
same,"tumour outcome (control, treated, inhibition, significance)","5 UMOL/D FOR 4 CONSECUTIVE DAYS PRIOR TO CARCINOGEN DOSE (STUDY DURATION: 18 WK), Route [Inhibitor]: GAVAGE, Species: MOUSE, Strain/Sex: STRAIN-A/FEMALE, Target Tissue: Type of Lesion: LUNG: ADENOMA, Dose [Carcinogen]: 10 UMOL ONCE","100%, 100%, 0%, not significant"
same,"tumour outcome (control, treated, inhibition, significance)","25 UMOL 1/D FOR 4 D ADMINISTERED PRIOR TO CARCINOGEN TREATMENT (STUDY DURATION: 116 D), Route [Inhibitor]: GAVAGE, Species: MOUSE, Strain/Sex: STRAIN-A, Target Tissue: Type of Lesion: LUNG: ADENOMA, Dose [Carcinogen]: 10 UMOL ONCE 2 HR AFTER FINAL DOSE OF INHIBITOR","100%, 30%, 70%, p<0.01"
same,"tumour outcome (control, treated, inhibition, significance)","25 UMOL/D FOR 4 CONSECUTIVE DAYS (STUDY DURATION: 17 WK), Route [Inhibitor]: GAVAGE, Species: MOUSE, Strain/Sex: STRAIN-A/FEMALE, Target Tissue: Type of Lesion: LUNG: ADENOMA, Dose [Carcinogen]: 10 UMOL ONCE 2 HR POST LAST AGENT DOSE","100%, 30%, 70%, p<0.01"
same,"tumour outcome (control, treated, inhibition, significance)","652 PPM IN DIET FOR 22 WK BEGINNING 1 WK PRIOR TO CARCINOGEN TREATMENT (STUDY DURATION: 98 WK), Route [Inhibitor]: ORAL, Species: RAT, Strain/Sex: F344/MALE, Target Tissue: Type of Lesion: LUNG: TUMOR, Dose [Carcinogen]: 1.5 MG/KG BW 3/WK FOR 20 WK","22/33 (67%), 6/36 (17%), 75%, p<0.001"
same,"tumour outcome (control, treated, inhibition, significance)","652 PPM IN DIET FOR 22 WK BEGINNING 1 WK PRIOR TO CARCINOGEN TREATMENT (STUDY DURATION: 98 WK), Route [Inhibitor]: ORAL, Species: RAT, Strain/Sex: F344/MALE, Target Tissue: Type of Lesion: NASAL CAVITY: TUMOR, Dose [Carcinogen]: 1.5 MG/KG BW 3/WK FOR 20 WK","28/36 (78%), 17/36 (47%), 40%, not significant"
same,"tumour outcome (control, treated, inhibition, significance)","1304 PPM IN DIET FOR 22 WK BEGINNING 1 WK PRIOR TO CARCINOGEN DOSE (STUDY DURATION: 98 WK), Route [Inhibitor]: ORAL, Species: RAT, Strain/Sex: F344/MALE, Target Tissue: Type of Lesion: NASAL CAVITY: TUMOR, Dose [Carcinogen]: 1.5 MG/KG BW 3/WK FOR 20 WK","28/36 (78%), 21/36 (58%), 26%, not significant"
same,"tumour outcome (control, treated, inhibition, significance)","1304 PPM IN DIET FOR 22 WK BEGINNING 1 WK PRIOR TO CARCINOGEN TREATMENT (STUDY DURATION: 98 WK), Route [Inhibitor]: ORAL, Species: RAT, Strain/Sex: F344/MALE, Target Tissue: Type of Lesion: LUNG: TUMOR, Dose [Carcinogen]: 1.5 MG/KG BW 3/WK FOR 20 WK","22/33 (67%), 3/36 (8%), 88%, p<0.0001"
same,outcome,"Dose [Inhibitor]: 3 UMOL/G DIET BEGINNING 1 WK PRIOR TO FIRST CARCINOGEN DOSE (STUDY DURATION: 104 WK), Route [Inhibitor]: ORAL, Species: RAT, Strain/Sex: F344/MALE, Target Tissue: Type of Lesion: ADRENAL GLAND: ADENOMA, Dose [Carcinogen]: 1.76 MG/KG 3/WK FOR 20 WK","0/40 (0%), 2/40 (5%), -5%, not calculated"
